Measurements taken from patent publication US11213516B2, “Intravaginally applicable devices comprising antiviral compounds” (AICURIS ANTI-INFECTIVE CURES GMBH, priority 2017, dated 2022).
Several values for one entry are separate records, joined by “and”; a condition that tells them apart may be missing. Identical values can stand only once.

Columns and labels:
[1] = Vaginal tissue (biopsy) concentration after intravaginal administration of vaginal ring; assay type: in vivo, Cynomolgus monkeys; details: 6-fold higher dose; Day 28
Procedure: (§1) The study was performed in four single dose phases with 28-day sampling period after Phases 1 and 2 (7-day washout period between doses). Vaginal rings were investigated for Pritelivir free base and Pritelivir mesylate salt at two dose levels per formulation. The test items were applied as vaginal ring in Phases 1 and 2 to female monkeys. The study design is below in the Table 3.
(§2) Vulval and vaginal biopsies were taken from all animals at the following times in relation to dosing.
(§3) For the sampling biopsies were taken with a suitable biopsy instrument. Biopsy samples were snap frozen on dry ice following collection and stored deep frozen (−20° C. or below) until analysis.
(§4) After suitable dilution, plasma and vaginal samples were analyzed on UPLC system Waters Acquity UPLC-HSS PFP column with 1.8 μm particles (100×2.1 mm) by gradient elution using 0.1% formic acid and methanol containing 0.1% formic acid. For detection, a time-of-flight mass spectrometer (Xevo GS-2 QTOF, Waters) was used operating in positive ionization mode (MSe analysis). The samples were analyzed for their content of Pritelivir free base.
Vaginal and vulval biopsies were taken 28 Days after administration of intravaginal rings. As biopsies were not weighed prior extraction, weights were estimated based on data from similar investigations using the same settings for biopsies. […]

[2] = Vulval tissue (biopsy) concentration after intravaginal administration of vaginal ring; assay type: in vivo, Cynomolgus monkeys; details: ring 40 mg free base; Phase 1; Day 28; per animal; biopsy weight estimated
Procedure: as §1, §2, §3, §4
Vaginal and vulval biopsies were taken 28 Days after administration of intravaginal rings. As biopsies were not weighed prior extraction, weights were estimated based on data from similar investigations using the same settings for biopsies. From this study minimum, maximum, and mean biopsy weight was used for the calculation. These biopsy weights ranged from 0.7 to 6.3 mg, mean 2.95 mg. For all calculations it was assumed that 1 kg tissue is equal to 1 L water.

[3] = In vitro release from matrix-type silicone elastomer vaginal rings; assay type: physicochemical; details: isopropanol/H2O, 37° C.
Procedure: HPLC analysis was conducted using an Agilent 1200 Series HPLC system, consisting of a quaternary HPLC pump, an auto sampler, an in-line Degasser AF Unit, a dual λ absorbance detector, and a column heater. A BDS Hypersil C18 (Thermo Scientific) column (length 150 mm, id 4.6 mm, particle size 3 μm) was used. The mobile phase comprised 45% of 1% w/v glacial acetic acid and 55% methanol pumped isocratically at a flow rate of 1 mL/min. The sample injection volume was 25 μL, the column temperature was 25° C., and detection was performed at 280 nm. Run time for the method was 5 min
Human-sized (56 mm or ×7.6 mm id), matrix-type, silicone elastomer vaginal rings containing either 25 mg or 400 mg of Pritelivir were manufactured by reaction injection molding of drug+silicone mixes. For the 25 mg rings, 272 mg Pritelivir free base or Pritelivir mesylate salt was weighed into a polypropylene Speedmixer container along with DDU-4320 silicone elastomer Part A (40 g) and Part B (40 g). After mixing (Speedmixer DAK 150 FVZ-K; 3000 rpm for 30 sec), the mixture was transferred to a 60 mL disposable plastic syringe and injected into pre-heated (90° C.) custom, two-cavity ring molds fitted to a laboratory-scale injection molding machine. After 3 minutes, the cured rings were removed from the molds. For the 400 mg rings, 4325 mg of Pritelivir free base or Pritelivir mesylate salt was weighed. Four samples of each ring type were manufactured.
Pritelivir rings were individually placed into stoppered glass flasks containing 100 mL isopropanol/H2O. The flasks were placed in a shaking orbital shaker (37° C., 60 rpm). The release medium was sampled (˜5 mL) every 24 h over a fourteen day period, with complete replacement of the 100 mL release medium at each sampling point to maintain sink conditions. Quantification of Pritelivir free base or Pritelivir mesylate salt concentrations in the samples was performed using the HPLC-UV method.

Compound: Cc1nc(N(C)C(=O)Cc2ccc(-c3ccccn3)cc2)sc1S(N)(=O)=O [Pritelivir free base]
- Increase of vaginal tissue concentrations, Phase 2 vs Phase 1 [1]: 2 fold
- Vulval tissue concentration of Pritelivir free base, Max [2]: <2.0 µg/g and 0.134 µg/g and 0.742 µg/g
- Vulval tissue concentration of Pritelivir free base, Mean [2]: <2.0 µg/g and 0.0318 µg/g and 0.176 µg/g
- Vulval tissue concentration of Pritelivir free base, Min [2]: <2.0 µg/g and 0.0149 µg/g and 0.0825 µg/g
- Cumulative Day 14 release ([3]; 25 mg matrix-type ring): 604.13 µg
- Mean Day 1 release ([3]; 25 mg matrix-type ring): 122.17 µg
- Mean Day 14 release ([3]; 25 mg matrix-type ring): 24.77 µg
- Release rate ([3]; 25 mg matrix-type ring): 177.0 µg/day
- Cumulative Day 14 release ([3]; 400 mg matrix-type ring): 2,495.52 μg
- Mean Day 1 release ([3]; 400 mg matrix-type ring): 443.45 µg
- Mean Day 14 release ([3]; 400 mg matrix-type ring): 102.16 µg
- Release rate ([3]; 400 mg matrix-type ring): 752.5 µg/day
